# Legend:
# [1] = target: Prostaglandin G/H synthase 1 (Ovis aries) (UniProt P05979); experiment: Inhibition of COX1 at 200 uM
# [2] = target: Prostaglandin G/H synthase 1 (Ovis aries) (UniProt P05979); experiment: Inhibition of COX1 at 100 uM
# [3] = target: Prostaglandin G/H synthase 1 (Ovis aries) (UniProt P05979); experiment: Inhibition of COX1
# Sequence of Prostaglandin G/H synthase 1 (Ovis aries) (P05979 whole entry, looked up): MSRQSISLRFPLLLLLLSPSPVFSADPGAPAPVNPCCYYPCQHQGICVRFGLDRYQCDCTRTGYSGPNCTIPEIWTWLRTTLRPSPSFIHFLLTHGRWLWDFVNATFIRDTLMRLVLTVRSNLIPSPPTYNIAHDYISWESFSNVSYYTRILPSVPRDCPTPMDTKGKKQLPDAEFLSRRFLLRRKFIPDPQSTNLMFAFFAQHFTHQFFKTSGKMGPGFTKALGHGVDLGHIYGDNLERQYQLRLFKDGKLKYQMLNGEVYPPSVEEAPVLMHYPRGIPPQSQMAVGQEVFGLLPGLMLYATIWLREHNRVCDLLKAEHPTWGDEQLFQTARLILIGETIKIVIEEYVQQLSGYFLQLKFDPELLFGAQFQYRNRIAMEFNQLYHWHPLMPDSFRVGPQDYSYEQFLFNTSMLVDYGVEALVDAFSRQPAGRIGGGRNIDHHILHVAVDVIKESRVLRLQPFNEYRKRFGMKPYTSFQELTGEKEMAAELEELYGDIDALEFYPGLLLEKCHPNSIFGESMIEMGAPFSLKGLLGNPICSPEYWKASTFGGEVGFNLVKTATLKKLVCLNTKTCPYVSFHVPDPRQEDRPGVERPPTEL
SMILES,inhibition [1],inhibition [2],IC50 [3]
CCN1C(=O)O/C(=C2/C(=O)N(c3ccccc3)N=C2C)C=C1C,19.9%,0%,–
CCCN1C(=O)O/C(=C2/C(=O)N(c3ccccc3)N=C2C)C=C1C,–,16%,–
CC1=C/C(=C2\C(=O)N(c3ccccc3)N=C2C)OC(=O)N1c1ccccc1,–,61.8%,79.4 µM
CC1=C/C(=C2\C(=O)N(c3ccccc3)N=C2C)OC(=O)N1Cc1ccccc1,–,18%,–
COc1ccc(N2C(=O)O/C(=C3/C(=O)N(c4ccccc4)N=C3C)C=C2C)cc1,–,22.6%,269 µM

# Now from value to molecule:
inhibition [1],inhibition [2],IC50 [3],SMILES
–,21.9%,251 µM,CC1=C/C(=C2\C(=O)N(c3ccccc3)N=C2C)OC(=O)N1c1ccc(Cl)cc1
–,54.6%,91.2 µM,CC1=C/C(=C2\C(=O)N(c3ccccc3)N=C2C)OC(=O)N1c1ccc(C)cc1
–,15%,–,CC1=C/C(=C2\C(=O)N(c3ccccc3)N=C2C)OC(=O)N1c1ccc(Br)cc1

# From ChEMBL document CHEMBL1143947, “Synthesis and in silico biological activity evaluation of new N-substituted pyrazolo-oxazin-2-one systems” (Bioorg Med Chem, 2008)
